Laboratory results: US11339130B1 (Blade Therapeutics, Inc., priority 2016, dated 2022)
Like-named read-outs stand apart in the source and are kept apart here.

Tests used:
[1] = biological target: T1, Human Calpain 1/NS1 (Homo sapiens, UniProt P07384); experiment: Calpain inhibition continuous fluorescence (FRET) assay, Human Calpain 1/NS1; format: biochemical; settings: Column A; read-out: Human Calpain 1/NS1 IC50
T1 sequence (P07384 1-714): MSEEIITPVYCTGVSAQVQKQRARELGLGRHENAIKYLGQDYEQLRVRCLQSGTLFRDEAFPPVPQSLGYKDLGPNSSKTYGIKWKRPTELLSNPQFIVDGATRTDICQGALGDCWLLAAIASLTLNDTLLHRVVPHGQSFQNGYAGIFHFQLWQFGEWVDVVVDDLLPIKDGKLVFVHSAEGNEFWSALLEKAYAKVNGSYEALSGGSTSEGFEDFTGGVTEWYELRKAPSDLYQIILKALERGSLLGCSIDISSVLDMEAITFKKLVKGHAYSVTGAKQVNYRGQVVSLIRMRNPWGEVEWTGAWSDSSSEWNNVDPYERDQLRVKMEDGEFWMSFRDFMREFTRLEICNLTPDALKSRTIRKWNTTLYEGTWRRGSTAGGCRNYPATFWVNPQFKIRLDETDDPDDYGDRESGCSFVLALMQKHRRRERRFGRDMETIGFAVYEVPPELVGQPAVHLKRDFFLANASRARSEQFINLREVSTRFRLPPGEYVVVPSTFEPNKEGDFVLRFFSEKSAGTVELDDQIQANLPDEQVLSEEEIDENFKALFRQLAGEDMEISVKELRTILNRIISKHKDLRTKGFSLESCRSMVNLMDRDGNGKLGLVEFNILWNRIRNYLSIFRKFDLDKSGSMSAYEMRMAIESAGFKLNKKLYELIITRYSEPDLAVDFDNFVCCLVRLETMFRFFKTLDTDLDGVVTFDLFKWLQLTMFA
T1 sequence (P04632 1-268 partner): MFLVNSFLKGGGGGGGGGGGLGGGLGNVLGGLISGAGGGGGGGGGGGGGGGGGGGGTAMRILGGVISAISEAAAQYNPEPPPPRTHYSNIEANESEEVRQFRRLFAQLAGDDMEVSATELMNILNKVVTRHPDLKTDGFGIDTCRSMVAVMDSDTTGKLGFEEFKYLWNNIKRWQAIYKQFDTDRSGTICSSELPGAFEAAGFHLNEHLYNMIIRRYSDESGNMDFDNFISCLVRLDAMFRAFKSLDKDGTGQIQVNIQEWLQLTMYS
In short: (§1)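 Calpain activity is measured kinetically with a quenched FRET peptide in 50 mM Tris pH 7.5, 100 mM NaCl, 1 mM DTT, with CaCl2 triggering activation. Rates over 1-5 min are plotted against log inhibitor to obtain IC50 by 4-parameter logistic fitting.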

[2] = biological target: T2, Human Calpain 2/NS1 (Homo sapiens, UniProt P17655); experiment: Calpain inhibition continuous fluorescence (FRET) assay, Human Calpain 2/NS1; format: biochemical; settings: Column B; read-out: Human Calpain 2/NS1 IC50
T2 sequence (P17655 1-700): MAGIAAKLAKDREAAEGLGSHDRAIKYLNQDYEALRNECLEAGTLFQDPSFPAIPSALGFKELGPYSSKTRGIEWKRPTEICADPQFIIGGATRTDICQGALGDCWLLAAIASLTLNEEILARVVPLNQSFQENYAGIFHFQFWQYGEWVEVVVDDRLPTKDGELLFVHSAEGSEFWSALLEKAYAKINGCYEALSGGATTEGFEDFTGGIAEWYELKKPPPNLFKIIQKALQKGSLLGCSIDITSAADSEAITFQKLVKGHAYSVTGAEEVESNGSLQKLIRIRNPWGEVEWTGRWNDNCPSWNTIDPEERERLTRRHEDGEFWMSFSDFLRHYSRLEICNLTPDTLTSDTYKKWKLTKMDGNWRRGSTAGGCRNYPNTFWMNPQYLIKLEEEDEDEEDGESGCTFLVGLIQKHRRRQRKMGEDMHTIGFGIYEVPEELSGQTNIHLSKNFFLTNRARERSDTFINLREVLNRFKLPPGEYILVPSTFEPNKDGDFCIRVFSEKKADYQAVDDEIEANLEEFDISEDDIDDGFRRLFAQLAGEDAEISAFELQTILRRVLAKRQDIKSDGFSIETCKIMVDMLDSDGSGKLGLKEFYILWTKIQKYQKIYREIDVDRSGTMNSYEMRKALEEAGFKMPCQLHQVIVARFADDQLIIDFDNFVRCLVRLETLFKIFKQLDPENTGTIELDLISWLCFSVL
T2 sequence (P04632 1-268 partner): T1 sequence (P04632 1-268 partner)
In short: as §1

[3] = biological target: T3, Human Calpain 9/NS1 (Homo sapiens, UniProt O14815); experiment: Calpain inhibition continuous fluorescence (FRET) assay, Human Calpain 9/NS1; format: biochemical; settings: Column C; read-out: Human Calpain 9/NS1 IC50
T3 sequence (O14815 1-690): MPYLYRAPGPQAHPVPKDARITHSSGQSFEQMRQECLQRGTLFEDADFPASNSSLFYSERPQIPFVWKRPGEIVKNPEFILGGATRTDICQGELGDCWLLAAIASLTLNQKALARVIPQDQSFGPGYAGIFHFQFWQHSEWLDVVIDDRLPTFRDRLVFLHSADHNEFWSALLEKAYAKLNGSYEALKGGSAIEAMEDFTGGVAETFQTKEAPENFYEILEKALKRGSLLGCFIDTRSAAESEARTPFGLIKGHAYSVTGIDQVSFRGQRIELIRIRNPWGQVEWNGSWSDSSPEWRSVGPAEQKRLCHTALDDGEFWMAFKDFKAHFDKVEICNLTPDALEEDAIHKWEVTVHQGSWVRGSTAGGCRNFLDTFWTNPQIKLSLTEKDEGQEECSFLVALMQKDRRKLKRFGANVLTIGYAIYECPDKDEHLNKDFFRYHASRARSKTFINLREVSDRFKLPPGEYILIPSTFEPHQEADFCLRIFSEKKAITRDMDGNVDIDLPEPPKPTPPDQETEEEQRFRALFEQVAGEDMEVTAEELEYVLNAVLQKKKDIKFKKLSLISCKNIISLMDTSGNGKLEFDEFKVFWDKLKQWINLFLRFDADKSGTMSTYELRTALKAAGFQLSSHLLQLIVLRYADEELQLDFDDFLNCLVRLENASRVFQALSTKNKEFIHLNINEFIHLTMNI
T3 sequence (P04632 1-268 partner): T1 sequence (P04632 1-268 partner)
In short: as §1

[4] = system: Calpain activity in SH-SY5Y cells (SBDP-150); experiment: SH-SY5Y Spectrin western blot assay (SBDP-150 breakdown product, A23187-induced); format: cell-based; settings: Homo sapiens, read-out: SH-SY5Y Spectrin IC50
[5] = system: Calpain activity in SH-SY5Y cells; experiment: SH-SY5Y + AMC fluorescence assay (Suc-LLVY-AMC substrate); format: cell-based
[6] = Column D, SH-SY5Y cells, A23187-induced SBDP-150
[7] = Column E, read-out: SH-SY5Y + AMC IC50

| Structure (SMILES) | IC50 [1] [µM] | IC50 [2] [µM] | IC50 [3] [µM] | IC50 [4, 6] [µM] | IC50 [5, 7] [µM] | IC50 ([4]; SH-SY5Y) [µM] | IC50 ([5]; read-out: SH-SY5Y + AMC IC50, Column E) [µM] |
| --- | --- | --- | --- | --- | --- | --- | --- |
| Cn1cc(C(=O)NC(Cc2ccccc2)C(=O)C(N)=O)c(-c2cccc(C(F)(F)F)n2)n1 (stereo not drawn) [Compound 198, N-(4-amino-3,4-dioxo-1-phenylbutan-2-yl)-1-methyl-3-(6-(trifluoromethyl)pyridin-2-yl)-1H-pyrazole-4-carboxamide] | < 3 | < 3 | < 3 | – | – | > 25 | > 25 |
| Cc1cc(C(=O)N[C@@H](Cc2ccccc2)C(=O)C(N)=O)n(-c2ncc(-c3ccccc3)o2)n1 [Compound 212, (S)—N-(4-amino-3,4-dioxo-1-phenylbutan-2-yl)-3-methyl-1-(5-phenyloxazol-2-yl)-1H-pyrazole-5-carboxamide] | < 3 | < 3 | < 3 | 10 to 25 | < 10 | – | – |
| Cc1cc(C(=O)N[C@@H](Cc2ccccc2)C(=O)C(N)=O)n(-c2ccc(-c3cccc(F)c3)cc2)n1 [Compound 216, (S)—N-(4-amino-3,4-dioxo-1-phenylbutan-2-yl)-1-(3′-fluoro-[1,1′-biphenyl]-4-yl)-3-methyl-1H-pyrazole-5-carboxamide] | < 3 | < 3 | < 3 | < 10 | > 25 | – | – |
| Cc1cc(C(=O)N[C@@H](Cc2ccccc2)C(=O)C(N)=O)n(-c2ccc(-c3ccccc3F)cc2)n1 [Compound 217, (S)—N-(4-amino-3,4-dioxo-1-phenylbutan-2-yl)-1-(2′-fluoro-[1,1′-biphenyl]-4-yl)-3-methyl-1 h-pyrazole-5-carboxamide] | < 3 | < 3 | < 3 | < 10 | > 25 | – | – |
| Cc1cccc(-c2ccc(-n3nc(C)cc3C(=O)N[C@@H](Cc3ccccc3)C(=O)C(N)=O)cc2)c1 [Compound 218, (S)—N-(4-amino-3,4-dioxo-1-phenylbutan-2-yl)-3-methyl-1-(3′-methyl-[1,1′-biphenyl]-4-yl)-1H-pyrazole-5-carboxamide] | < 3 | < 3 | < 3 | 10 to 25 | > 25 | – | – |
| Cc1cc(C(=O)N[C@@H](Cc2ccccc2)C(=O)C(N)=O)c(-c2ccccc2)s1 [Compound 222, (S)—N-(4-amino-3,4-dioxo-1-phenylbutan-2-yl)-5-methyl-2-phenylthiophene-3-carboxamide] | < 3 | < 3 | < 3 | 10 to 25 | > 25 | – | – |
| Cc1cnn(-c2ccccc2)c1C(=O)N[C@@H](Cc1ccccc1)C(=O)C(N)=O [Compound 223, (S)—N-(4-amino-3,4-dioxo-1-phenylbutan-2-yl)-4-methyl-1-phenyl-1H-pyrazole-5-carboxamide] | < 3 | < 3 | < 3 | 10 to 25 | > 25 | – | – |
| CCc1nc(-c2ccccc2)c(C(=O)N[C@@H](Cc2ccccc2)C(=O)C(N)=O)o1 [Compound 226, (S)—N-(4-amino-3,4-dioxo-1-phenylbutan-2-yl)-2-ethyl-4-phenyloxazole-5-carboxamide] | < 3 | < 3 | < 3 | < 10 | < 10 | – | – |
| CCOCc1ccc(-n2nc(C)cc2C(=O)N[C@@H](Cc2ccccc2)C(=O)C(N)=O)cc1 [Compound 227, (S)—N-(4-amino-3,4-dioxo-1-phenylbutan-2-yl)-1-(4-(ethoxymethyl)phenyl)-3-methyl-1H-pyrazole-5-carboxamide] | < 3 | < 3 | < 3 | < 10 | > 25 | – | – |

The next lines start with results.

| IC50 [1] [µM] | IC50 [2] [µM] | IC50 [3] [µM] | IC50 [4, 6] [µM] | IC50 [5, 7] [µM] | Structure (SMILES) | IC50 ([4]; SH-SY5Y) [µM] | IC50 ([5]; read-out: SH-SY5Y + AMC IC50, Column E) [µM] |
| --- | --- | --- | --- | --- | --- | --- | --- |
| < 3 | < 3 | < 3 | 10 to 25 | > 25 | Cn1cc(C(=O)N[C@@H](Cc2ccccc2)C(=O)C(N)=O)c(-c2cccc(Cl)c2)n1 [Compound 187, (S)—N-(4-amino-3,4-dioxo-1-phenylbutan-2-yl)-3-(3-chlorophenyl)-1-methyl-1H-pyrazole-4-carboxamide] | – | – |
| < 3 | < 3 | < 3 | 10 to 25 | > 25 | Cn1cc(C(=O)N[C@@H](Cc2ccccc2)C(=O)C(N)=O)c(-c2cccnc2)n1 [Compound 188, (S)—N-(4-amino-3,4-dioxo-1-phenylbutan-2-yl)-1-methyl-3-(pyridin-3-yl)-1H-pyrazole-4-carboxamide] | – | – |
| < 3 | < 3 | < 3 | 10 to 25 | > 25 | NC(=O)C(=O)[C@H](Cc1ccccc1)NC(=O)c1cncn1-c1ccc(-c2ccccc2)nn1 [Compound 200, (S)—N-(4-amino-3,4-dioxo-1-phenylbutan-2-yl)-1-(6-phenylpyridazin-3-yl)-1H-imidazole-5-carboxamide] | – | – |
| < 3 | < 3 | < 3 | 10 to 25 | > 25 | Cc1cc(C(=O)N[C@@H](Cc2ccccc2)C(=O)C(N)=O)n(-c2ccc(-c3ccccc3C)cc2)n1 [Compound 202, (S)—N-(4-amino-3,4-dioxo-1-phenylbutan-2-yl)-3-methyl-1-(2′-methyl-[1,1′-biphenyl]-4-yl)-1H-pyrazole-5-carboxamide] | – | – |
| < 3 | < 3 | < 3 | 10 to 25 | < 10 | NC(=O)C(=O)[C@H](Cc1ccccc1)NC(=O)c1sc(C2CC2)nc1-c1ccccc1 [Compound 207, (S)—N-(4-amino-3,4-dioxo-1-phenylbutan-2-yl)-2-cyclopropyl-4-phenylthiazole-5-carboxamide] | – | – |
| < 3 | < 3 | < 3 | < 10 | > 25 | Cc1cc(C(=O)N[C@@H](Cc2ccccc2)C(=O)C(N)=O)n(-c2ccc(C#N)cn2)n1 [Compound 208] | – | – |
